Assay results from paper PMC8868332, “Creating Robust Antimicrobial Materials with Sticky Tyrocidines” (Antibiotics, 2022).
Where no end group is shown, it is not given here.

Experiments:
[1] = tested on: Escherichia coli K12; test: Resazurin assay of surface activity of peptide-treated cellulose; format: cell-based; conditions: cellulose filters, 5.0 µg compound offered per 0.28 cm^2; normalised to untreated cellulose; Figure 6B, three biological and four technical repeats
Experimental: (§1) An aqueous solution of antimicrobial compound (100 µL of 50.0 µg/mL; 5% v/v acetonitrile) was incubated for two hours with the base material punch (0.28 cm^2), ensuring that 5.0 µg of compound was available for binding. Following the incubation, the antimicrobial compound solution was removed, and the samples washed twice with 100 µL sterile analytical quality water and dried in a 40 °C oven for 2 h. Treatment conditions were chosen to imitate large scale treatment/creation of packaging materials, such as aqueous solutions, followed by a drying step.
The antimicrobial activity of the Trc-containing materials and films were determined by a developed resazurin assay. Listeria monocytogenes B73 was streaked out from freezer stocks onto BHI agar plates (Brain Heart Infusion; 1.5% m/v agar) and incubated for 48 h at 37 °C until colonies were viable. Escherichia coli K12 was streaked out from freezer stocks onto LB plates (1% m/v NaCl, 1% m/v tryptone, 0.5% m/v yeast extract, 1.5% m/v agar in water) and incubated at 37 °C for 24 h. Starter cultures were prepared, by inoculating 1 mL medium with 3–5 colonies and growing the cells overnight at 37 °C at an angle, shaking at 150 RPM. […] This culture was then pipetted (10 µL) onto the treated and untreated materials in a 96-well assay plate and incubated for one hour at 37 °C. Following the incubation, 90 µL PBS (phosphate buffered saline; 0.8% m/v NaCl, 0.04% m/v KCl, 0.144% m/v Na2HPO4, 0.02% m/v KH2PO4; pH 7.4), and 10 µL resazurin dye (0.3 mg/mL in PBS) was added, followed by a further incubation at 37 °C. The conversion of the resazurin was measured at Ex530 and Em590 after 30 min for L. monocytogenes and 90 min for E. coli using the Tecan Spark 10 M Multimode Microplate Reader and controlled by the Spark Control^TM software, both provided by Tecan Group Ltd. (Mennedorf, Switzerland). […] The activity of the material was determined in terms of percentage inhibition by using the acquired fluorescence readings (F), with the following Equation: (1) %Inhibition of Target organism=100−(F of well−F of average blank)×100/(F of growth control−F of average blank).

[2] = general character summarised in Table 2; no reference given; cited from earlier work
Source text: Table 2 Summary of the compounds used to compare with the Trc in creating robust non-covalent antimicrobial materials. | column: Character

[3] = tested on: L. monocytogenes; conditions: cited from earlier work
Source text: Table 2 Summary of the compounds used to compare with the Trc in creating robust non-covalent antimicrobial materials. | column: Minimum Inhibitory Concentration (μg/mL) / L. monocytogenes

[4] = tested on: E. coli; conditions: cited from earlier work
Source text: Table 2 Summary of the compounds used to compare with the Trc in creating robust non-covalent antimicrobial materials. | column: Minimum Inhibitory Concentration (μg/mL) / E. coli

[5] = tested on: Listeria monocytogenes B73; test: Resazurin assay of surface activity of peptide-treated materials; format: cell-based; conditions: cellulose filters, 5.0 µg compound offered per 0.28 cm^2; normalised to untreated cellulose; Figure 6A, three biological and four technical repeats
Experimental: as §1
The antimicrobial activity of the Trc-containing materials and films were determined by a developed resazurin assay. […] The conversion of the resazurin was measured at Ex530 and Em590 after 30 min for L. monocytogenes and 90 min for E. coli using the Tecan Spark 10 M Multimode Microplate Reader and controlled by the Spark Control^TM software, both provided by Tecan Group Ltd. (Mennedorf, Switzerland). […] The activity of the material was determined in terms of percentage inhibition by using the acquired fluorescence readings (F), with the following Equation: (1) %Inhibition of Target organism=100−(F of well−F of average blank)×100/(F of growth control−F of average blank).

| Compound | % Inhibition of E. coli by peptide-treated cellulose [1] | Haemolytic character (Character) [2] | Solubility (Character) [2] | Minimum Inhibitory Concentration L. monocytogenes [3] | Minimum Inhibitory Concentration E. coli [4] | % Inhibition of L. monocytogenes by peptide-treated cellulose [5] |
| --- | --- | --- | --- | --- | --- | --- |
| Leucocin A (KYYGNGVHCTKSGCSVNWGEAFSAGVHRLANGGNGFW; ends and bridges not checked; cysteine pairing not given here; UniProt P34034 25-61, looked up) [37-mer cationic, amphipathic disulphide-bonded bacteriocin from Leuconostoc gelidum UAL187] | low levels of inhibition | non-haemolytic | water-soluble | 0.98–1.98 [87] μg/mL | – | – |
| CNC(C)C1CCC(N)C(OC2C(N)CC(N)C(OC3OCC(C)(O)C(NC)C3O)C2O)O1 (stereo not drawn) [Gentamicin] | – | – | – | 0.5–4.0 [91, 92] μg/mL | – | – |
| Magainin 2 | “negative” inhibition | – | – | – | 10–50 [85] μg/mL | – |
| gramicidin S [GS] | full inhibition | – | – | 11 ± 0.20 [34] μg/mL | 3–12.5 [84] μg/mL | 100% |
| Melittin | low levels of inhibition | haemolytic | water-soluble | 0.315 ± 0.008 [88] μg/mL | 15–42.5 [89, 90] μg/mL | – |
| PGLa | “negative” inhibition | – | – | – | 10–50 [86] μg/mL | – |
